Among the data in patent US9458172B2, “Pyridinyl and pyrimidinyl sulfoxide and sulfone derivatives” (priority 2012, dated 2016) are IC50 values, retold here.

Read-outs that look alike come from different tables or passages of the source.

One assay has as its system A2780 cells. Nature of the assay: In-Vitro Cell Proliferation Assay (SRB).
For a further assay, the target named is NAMPT (Homo sapiens (Human), UniProt P43490). Description: Biochemical Inhibition Assay (NAMPT enzymatic reaction, NMN quantified by mass spectrometry). The conditions noted are these: 33 nM recombinant His-tagged NAMPT, 1 μM NAM, 30 min at rt. On the procedure:
Assay 1: Biochemical Inhibition Assay
NAMPT protein purification. Recombinant His-tagged NAMPT was produced in E. coli cells, purified over a Ni column, and further purified over a size-exclusion column by XTAL Biostructures.
The NAMPT Enzymatic Reaction. The NAMPT enzymatic reactions were carried out in Buffer A (50 mM Hepes pH 7.5, 50 mM NaCl, 5 mM MgCl2, and 1 mM THP) in 96-well V-bottom plates. The compound titrations were performed in a separate dilution plate by serially diluting the compounds in DMSO to make a 100× stock. […] The compound and enzyme mixture was incubated for 15 min at rt, then 10 μL of 10× substrate and co-factors in Buffer A were added to the test well to make a final concentration of 1 μM NAM, […] 5-Phospho-D-ribose 1-diphosphate (PRPP), and 2.5 mM Adenosine 5′-triphosphate (ATP). The reaction was allowed to proceed for 30 min at rt, then was quenched with the addition of 11 μL of a solution of formic acid and L-Cystathionine to make a final concentration of 1% formic acid and 10 μM L-Cystathionine. Background and signal strength was determined by addition (or non-addition) of a serial dilution of NMN to a pre-quenched enzyme and cofactor mix.
Quantification of NMN. A mass spectrometry-based assay was used to measure the NAMPT reaction product, β-nicotinamide mononucleotide (NMN), and the internal control (L-Cystathionine). NMN and L-Cystathionine were detected using the services of Biocius Lifesciences with the RapidFire system. In short, the NMN and L-Cystathionine were bound to a graphitic carbon cartridge in 0.1% formic acid, eluted in 30% acetonitrile buffer, and injected into a Sciex 4000 mass spectrometer. The components of the sample were ionized with electrospray ionization and the positive ions were detected. […] The fragments are quantified and the analyzed by the following method.
Determination of IC50 Values. First, the NMN signal was normalized to the L-Cystathionine signal by dividing the NMN signal by the L-Cystathionine signal for each well. The signal from the background wells were averaged and subtracted from the test plates.

Where [1] appears, read: Homo sapiens, A2780, 72 h, read-out: Cell Proliferation (IC50).
Setting [2] is: read-out: Cell Proliferation (IC50), A2780 cells, 72 h, sulforhodamine B.
Where [3] appears, read: Homo sapiens, A2780, 72 h, read-out: Cell Proliferation (IC50), A2780 cells, 72 h, sulforhodamine B.

Sequence of NAMPT (P43490 whole entry): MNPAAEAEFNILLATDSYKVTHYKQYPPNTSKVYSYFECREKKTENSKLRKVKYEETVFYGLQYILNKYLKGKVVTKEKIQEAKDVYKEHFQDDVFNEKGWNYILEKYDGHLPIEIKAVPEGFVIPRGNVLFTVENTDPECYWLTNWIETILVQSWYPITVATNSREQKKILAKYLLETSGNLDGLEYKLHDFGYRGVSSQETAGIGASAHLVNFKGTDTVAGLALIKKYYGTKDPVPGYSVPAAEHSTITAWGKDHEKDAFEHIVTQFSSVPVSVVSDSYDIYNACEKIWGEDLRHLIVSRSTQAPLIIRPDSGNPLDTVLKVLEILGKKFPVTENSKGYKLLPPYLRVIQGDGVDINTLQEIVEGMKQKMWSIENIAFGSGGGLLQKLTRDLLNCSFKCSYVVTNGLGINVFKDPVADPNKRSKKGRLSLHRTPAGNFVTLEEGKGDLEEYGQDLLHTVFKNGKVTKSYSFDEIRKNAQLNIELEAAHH
Description for A2780 cells: Assay 2: In-Vitro Cell Proliferation Assay
Assay Method. […] The compounds were then further diluted to 10 OX final concentration in culture media, whereupon 20 μL of each dilution was added to the plated cells with controls (e.g. DMSO and blank) to make a final volume of 200 μL. The final DMSO concentration in each well was 0.1%. The plates were then incubated for 72 h at 37° C. in a 5% CO2 incubator. The number of viable cells was then assessed using sulforhodamine B (SRB) assay. Cells were fixed at 4° C. for 1 h with the addition of 50 μL 30% trichloroacetic acid (TCA) to make a final concentration of 6% TCA. The plates were washed four times with H2O and allowed to dry for at least 1 h, whereupon 100 μL of a 4% SRB in 1% acetic acid solution was added to each well and incubated at rt for at least 30 min. The plates were then washed three times with 1% acetic acid, dried, and treated with 100 μL of 10 mM Tris-Base solution. The plates were then read in a microplate reader at an absorbance of 570 nm. Background was generated on a separate plate with media only.
Determination of IC50 Values. First, the signals from the background plate were averaged, then the background was subtracted from the test plates.
The specificity of the compounds were determined via cell viability assay in the presence of the compound and either NAM or NMN Percent inhibitions were determined using the method given above.

Regarding `O=C(NCc1ccc([S+]([O-])c2cc(F)cc(F)c2)cn1)c1cc2cnccc2[nH]1` (racemic) [Example 9, 1H-Pyrrolo[3,2-c]pyridine-2-carboxylic acid [5-(3,5-difluoro-benzenesulfinyl)-pyridin-2-ylmethyl]-amide (racemic)], the IC50 is 209 nM with A2780 cells (setting [1]) and 55.3 nM at NAMPT.
For the compound `O=C(NCc1ccc([S+]([O-])c2cc(F)cc(F)c2)cn1)c1ccc2nccn2c1` (racemic) [Example 14, Imidazo[1,2-a]pyridine-6-carboxylic acid [5-(3,5-difluoro-benzenesulfinyl)-pyridin-2-ylmethyl)-amide (racemic)], the IC50 with A2780 cells (setting [2]) was determined as 51.3 nM; at NAMPT, 36.5 nM.
Regarding `O=C(NCc1ccc([S+]([O-])c2cc(F)cc(F)c2)cn1)c1cnc2[nH]ncc2c1` (racemic) [Example 15, 1H-Pyrazolo[3,4-b]pyridine-5-carboxylic acid [5-(3,5-difluoro-benzenesulfinyl)-pyridin-2-ylmethyl]-amide (racemic)], the IC50 is 309 nM with A2780 cells (setting [1]) and 357 nM on NAMPT.
In the case of `O=C(NCc1ccc([S+]([O-])c2cc(F)cc(F)c2)cn1)c1cnc2nccn2c1` (racemic) [Example 24, Imidazo[1,2-a]pyrimidine-6-carboxylic acid [5-(3,5-difluoro-benzenesulfinyl)-pyridin-2-ylmethyl]-amide (racemic)], the IC50 with A2780 cells (setting [1]) turned out to be 275 nM; at NAMPT it was 16.2 nM.
For the compound `O=C(NCc1ccc([S+]([O-])c2cc(F)cc(F)c2)cn1)c1ccc2nccn2c1` (racemic) [Example 55, Imidazo[1,2-a]pyridine-6-carboxylic acid [5-(3,5-difluoro-benzenesulfinyl)-pyridin-2-ylmethyl]-amide (racemic)], the IC50 worked out at 41.9 nM with A2780 cells (setting [2]) and 15.9 nM on NAMPT.
Take `O=C(NCc1ccc([S+]([O-])c2cc(F)cc(F)c2)cn1)c1ccc2nccn2c1` (racemic) [Example 58, Imidazo[1,2-a]pyridine-6-carboxylic acid [5-(3,5-difluoro-benzenesulfinyl)-pyridin-2-ylmethyl]-amide (racemic)]: the IC50 in the assay on A2780 cells (setting [2]) is 959 nM; on NAMPT, 407 nM.
Regarding `O=C(NCc1ccc([S+]([O-])c2cccc(C(F)(F)F)c2)cn1)c1cc2ccncc2o1` (racemic) [Example 87, Furo[2,3-c]pyridine-2-carboxylic acid [5-(3-trifluoromethyl-benzenesulfinyl)-pyridin-2-ylmethyl]-amide (racemic)], the figures for the IC50 with A2780 cells (setting [1]) and on NAMPT were 15.2 nM and 17.7 nM, respectively.
As to `O=C(NCc1ccc([S+]([O-])c2cccc(OC(F)(F)F)c2)cn1)N1Cc2ccncc2C1` (racemic) [Example 89, 1,3-Dihydro-pyrrolo[3,4-c]pyridine-2-carboxylic acid [5-(3-trifluoromethoxy-benzenesulfinyl)-pyridin-2-ylmethyl]-amide (racemic)], the IC50 with A2780 cells (setting [1]) was determined as 18.6 nM; on NAMPT, 8 nM.
The corresponding values for `O=C(NCc1ccc([S+]([O-])c2cccc(OC(F)(F)F)c2)cn1)c1cc2ccncc2o1` (racemic) [Example 90, Furo[2,3-c]pyridine-2-carboxylic acid [5-(3-trifluoromethoxy-benzenesulfinyl)-pyridin-2-ylmethyl]-amide (racemic)] are 25.5 nM and 16.2 nM.
In the case of `O=C(NCc1ccc([S+]([O-])c2cccc(OC(F)(F)F)c2)cn1)c1ccc2nccn2c1` (racemic) [Example 101, Imidazo[1,2-a]pyridine-6-carboxylic acid [5-(3-trifluoromethoxy-benzenesulfinyl)-pyridin-2-ylmethyl]-amide (racemic)], the IC50 in the assay with A2780 cells (setting [3]) amounted to 40.2 nM; on NAMPT it was 31.5 nM.
For the compound `O=C(NCc1ccc(S(=O)(=O)c2cc(F)cc(F)c2)cn1)c1cc2ccncc2o1` [Example 5, Furo[2,3-c]pyridine-2-carboxylic acid [5-(3,5-difluoro-benzenesulfonyl)-pyridin-2-ylmethyl]-amide], in the assay with A2780 cells (setting [3]), the IC50 was found to be 5.2 nM.
With `O=C(NCc1ncc(S(=O)(=O)c2ccccc2)cn1)c1cc2ccncc2o1` [Example 11, Furo[2,3-c]pyridine-2-carboxylic acid (5-benzenesulfonyl-pyrimidin-2-ylmethyl)-amide], the IC50 in the assay with A2780 cells (setting [1]) stood at 314 nM.
Turning to `O=C(NCc1ccc(S(=O)(=O)c2cccc(OC(F)(F)F)c2)cn1)c1cnc2[nH]ncc2c1` [Example 19, 1H-Pyrazolo[3,4-b]pyridine-5-carboxylic acid [5-(3-trifluoromethoxy-benzenesulfonyl)-pyridin-2-ylmethyl]-amide], the IC50 in the assay on A2780 cells (setting [3]) was determined as 28.3 nM.
The same measure, in the same setting: the result for `O=C(NCc1ccc(S(=O)(=O)c2cccc(OC(F)(F)F)c2)cn1)c1cc2cnccc2[nH]1` [Example 21, 1H-Pyrrolo[3,2-c]pyridine-2-carboxylic acid [5-(3-trifluoromethoxy-benzenesulfonyl)-pyridin-2-ylmethyl]-amide] reads 10.2 nM; that for `O=C(NCc1ccc(S(=O)(=O)c2cccc(C(F)(F)F)c2)cn1)c1cc2ccncc2o1` [Example 22, Furo[2,3-c]pyridine-2-carboxylic acid [5-(3-trifluoromethyl-benzenesulfonyl)-pyridin-2-ylmethyl]-amide], 5.4 nM.
`CCCn1cc(S(=O)(=O)c2ccc(CNC(=O)c3cc4ccncc4o3)nc2)cn1` [Example 61, Furo[2,3-c]pyridine-2-carboxylic acid [5-(1-propyl-1H-pyrazole-4-sulfonyl)-pyridin-2-ylmethyl]-amide]: in the assay on A2780 cells (setting [1]), the IC50 was 5.3 nM.
On to `CC(C)n1cc(S(=O)(=O)c2ccc(CNC(=O)c3cc4ccncc4o3)nc2)cn1` [Example 62, Furo[2,3-c]pyridine-2-carboxylic acid [5-(1-isopropyl-1H-pyrazole-4-sulfonyl)-pyridin-2-ylmethyl]-amide], for which the IC50 in the assay on A2780 cells (setting [3]) is 11.6 nM.
Same read-out and setting: the result for `O=C(NCc1ccc(S(=O)(=O)c2cc(F)cc(N3CCOCC3)c2)cn1)c1cc2ccncc2o1` [Example 88, Furo[2,3-c]pyridine-2-carboxylic acid [5-(3-fluoro-5-morpholin-4-yl-benzenesulfonyl)-pyridin-2-ylmethyl]-amide] reads 2 nM; that for `O=C(NCc1ccc(S(=O)(=O)c2ccc(N3CCOCC3)cc2)cn1)N1Cc2ccncc2C1` [Example 97, 1,3-Dihydro-pyrrolo[3,4-c]pyridine-2-carboxylic acid [5-(4-morpholin-4-yl-benzenesulfonyl)-pyridin-2-ylmethyl]-amide], 4.23 nM.
Still for that read-out and setting: the same measure for `O=C(NCc1ccc(S(=O)(=O)C2CCN(C3COC3)CC2)cn1)c1cc2ccncc2o1` [Example 103, Furo[2,3-c]pyridine-2-carboxylic acid [5-(1-oxetan-3-yl-piperidine-4-sulfonyl)-pyridin-2-ylmethyl]-amide]: 38.9 nM; for `O=C(NCc1ccc(S(=O)(=O)C2CCN(C3CCOCC3)CC2)cn1)c1cc2ccncc2o1` [Example 105, Furo[2,3-c]pyridine-2-carboxylic acid {5-[1-(tetrahydro-pyran-4-yl)-piperidine-4-sulfonyl]-pyridin-2-ylmethyl)-amide]: 28.6 nM.
In the case of `CN1CCN(c2ccc(S(=O)(=O)c3ccc(CNC(=O)c4cc5ccncc5o4)nc3)cn2)CC1` [Example 113, N-[[5-[[6-(4-methylpiperazin-1-yl)-1-pyridyl]sulfonyl]-2-pyridyl]methyl]furo[2,3-c]pyridine-2-carboxamide], in the assay on A2780 cells (setting [2]), the IC50 came out at 0.488 nM.
As for `CCCn1cc(S(=O)(=O)c2ccc(CNC(=O)N3Cc4ccncc4C3)nc2)cn1` [Example 140, N-[[5-(1-propylpyrazol-4-yl)sulfonyl-2-pyridyl]methyl]-1,3-dihydropyrrolo[3,4-c]pyridine-2-carboxamide], the IC50 in the assay with A2780 cells (setting [3]) worked out at 37.2 nM.
Turning to `COc1cc(F)cc(S(=O)(=O)c2ccc(CNC(=O)c3cnc4[nH]ncc4c3)nc2)c1` [Example 144, N-[[5-(3-fluoro-5-methoxy-phenyl)sulfonyl-2-pyridyl]methyl]-1H-pyrazolo[3,4-b]pyridine-5-carboxamide], the IC50 in the assay with A2780 cells (setting [3]) was determined as 41.5 nM.
The same measure, in the same setting: the same measure for `CCN(C)c1ncc(S(=O)(=O)c2ccc(CNC(=O)c3cc4ccncc4o3)nc2)s1` [Example 146, N-[[5-[2-[ethyl(methyl)amino]thiazol-5-yl]sulfonyl-2-pyridyl]methyl]furo[2,3-c]pyridine-2-carboxamide]: 3.03 nM; for `CCn1cc(S(=O)(=O)c2ccc(CNC(=O)c3cc4ccncc4o3)nc2)cn1` [Example 176, N-[[5-(l-ethylpyrazol-4-yl)sulfonyl-2-pyridyl]methyl]furo[2,3-c]pyridine-2-carboxamide]: 58.8 nM.
